Values after ≈ are worked out from the molar mass of the structure shown. Where two headings read alike, the source gives them in different places.
Key:
[1] = test system: enterococci; test: Minimum inhibitory concentration, microdilution broth method, enterococci; type: cell-based; settings: Mueller-Hinton broth, 18-22 hours at 35° C.; for MIC: Enterococcus faecalis
Procedure, shortened: (§1)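 Broth microdilution per NCCLS M7-A5 (2000). Staphylococci and enterococci grown in Mueller-Hinton broth; streptococci in Mueller-Hinton broth with 5% horse blood (LHB). Panel includes recent clinical isolates resistant to methicillin, penicillin and/or vancomycin.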

[2] = target: T1, S. aureus Uridine-diphosphate-N-acetvimuramoyl: L-alanine lipase, MurC (Staphylococcus aureus, UniProt Q2FXJ0); test: biochemical
T1 sequence (Q2FXJ0 1-437): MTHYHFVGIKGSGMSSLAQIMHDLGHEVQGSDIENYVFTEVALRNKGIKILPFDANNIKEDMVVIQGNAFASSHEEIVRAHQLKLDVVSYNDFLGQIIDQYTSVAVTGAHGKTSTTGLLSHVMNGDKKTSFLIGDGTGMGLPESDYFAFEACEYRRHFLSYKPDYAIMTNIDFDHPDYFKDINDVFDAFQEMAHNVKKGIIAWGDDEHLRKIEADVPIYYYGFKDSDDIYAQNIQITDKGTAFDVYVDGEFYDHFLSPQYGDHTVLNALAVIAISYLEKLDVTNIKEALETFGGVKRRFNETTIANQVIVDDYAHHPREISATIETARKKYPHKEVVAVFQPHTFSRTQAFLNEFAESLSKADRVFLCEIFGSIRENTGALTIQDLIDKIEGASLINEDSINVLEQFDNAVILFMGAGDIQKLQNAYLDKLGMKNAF
Procedure, shortened: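 MurC assay: enzyme (E. coli 100 μg/mL, S. aureus 70 μg/mL stock) with L-Ala and test compound, pre-incubated 10 min at 23 °C, then UDP-MurNac added, 10 min at 37 °C. Phosphate released detected by malachite green–molybdate at 660 nm; IC50 by linear regression.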

[3] = test system: Streptococci; test: Minimum inhibitory concentration, microdilution broth method, streptococci; type: cell-based; settings: Mueller-Hinton broth with 5% horse blood, 18-22 hours at 35° C.; for MIC: S. pneumo GC 1894
Procedure, shortened: as §1

[4] = target: T2, S. aureus Uridine-diphosphate-N-acetylmuramoyl-L-alanine: D-glutamate liease, MurD (Staphylococcus aureus, UniProt Q2FZ92); test: biochemical; settings: (S) S. aureus enzyme
T2 sequence (Q2FZ92 1-449): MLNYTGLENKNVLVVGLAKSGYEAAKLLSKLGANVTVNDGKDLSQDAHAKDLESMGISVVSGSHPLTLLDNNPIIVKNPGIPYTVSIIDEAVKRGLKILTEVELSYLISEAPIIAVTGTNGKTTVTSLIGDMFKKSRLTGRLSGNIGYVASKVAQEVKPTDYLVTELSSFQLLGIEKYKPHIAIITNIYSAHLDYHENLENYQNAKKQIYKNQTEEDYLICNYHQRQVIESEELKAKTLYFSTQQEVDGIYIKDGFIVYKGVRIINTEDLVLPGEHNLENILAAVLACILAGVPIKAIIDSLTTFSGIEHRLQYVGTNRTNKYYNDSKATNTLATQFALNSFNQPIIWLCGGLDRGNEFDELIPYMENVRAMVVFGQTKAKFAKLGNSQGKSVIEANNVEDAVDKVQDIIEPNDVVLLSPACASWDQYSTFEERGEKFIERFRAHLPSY
Procedure, shortened: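 MurD, which catalyses the fourth step of cell wall biosynthesis, was tested for inhibition by compounds. Compounds were made up as 10 mg/mL DMSO stocks and diluted to 100 μg/mL in 50 mM Tris/HCl, pH 8.5.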

[5] = E. faecalis GC 2242, read-out: MIC E. faecalis GC 2242
[6] = E. faecalis GC 4555, read-out: MIC E. faecalis GC 4555
[7] = (S) S. aureus enzyme, read-out: MurC IC50 (converted)

## Cc1cc(/C=C2\OC(=O)C(c3cc(Cl)cc(Cl)c3)=C2O)ccc1-c1ccccc1C(F)(F)F [Example 27]
[1]; [5]
  MIC: 1 µg/mL (≈ 2.04 µM)
[1]; [6]
  MIC: 2 µg/mL (≈ 4.07 µM)
[2]; [7]
  IC50: > 50.9 µM
[3]
  MIC: 0.5 µg/mL (≈ 1.02 µM)
[4]
  IC50: 48.9 µM

## Cc1ccccc1-c1ccc(/C=C2\OC(=O)C(c3cccc(Cl)c3)=C2O)cc1C [Example 28]
[1]; [5]
  MIC: 2 µg/mL (≈ 4.96 µM)
[1]; [6]
  MIC: 4 µg/mL (≈ 9.93 µM)
[2]; [7]
  IC50: > 62.1 µM
[3]
  MIC: < 0.125 µg/mL
[4]
  IC50: > 62.1 µM

## Cc1ccccc1-c1ccc(/C=C2\OC(=O)C(c3cc(Cl)cc(Cl)c3)=C2O)cc1C [Example 29]
[1]; [5]
  MIC: 0.5 µg/mL (≈ 1.14 µM)
[1]; [6]
  MIC: 2 µg/mL (≈ 4.57 µM)
[2]; [7]
  IC50: 54.9 µM
[3]
  MIC: < 0.125 µg/mL
[4]
  IC50: 38.9 µM

## Cc1cc(/C=C2\OC(=O)C(c3cccc(Cl)c3)=C2O)ccc1-c1ccccc1Cl [Example 30]
[1]; [5]
  MIC: 4 µg/mL (≈ 9.45 µM)
[1]; [6]
  MIC: 4 µg/mL (≈ 9.45 µM)
[2]; [7]
  IC50: > 59.1 µM
[3]
  MIC: 0.25 µg/mL (≈ 0.591 µM)
[4]
  IC50: > 59.1 µM

## Cc1cc(C=C2OC(=O)C(c3cc(Cl)cc(Cl)c3)=C2O)ccc1-c1ccccc1Cl [Example 31]
[1]; E. faecalis GC 2242
  MIC E. faecalis GC 2242: 1 µg/mL (≈ 2.18 µM)
[1]; E. faecalis GC 4555
  MIC E. faecalis GC 4555: 2 µg/mL (≈ 4.37 µM)
[2]; (S) S. aureus enzyme
  MurC IC50: >25 (S) μg/mL
[3]
  MIC S. pneumo GC 1894: 0.25 µg/mL (≈ 0.546 µM)
[4]
  MurD IC50: 10 (S) μg/mL

## COc1cc(/C=C2\OC(=O)C(c3cccc(Cl)c3)=C2O)ccc1-c1ccccc1C(F)(F)F [Example 32]
[1]; [5]
  MIC: 4 µg/mL (≈ 8.46 µM)
[1]; [6]
  MIC: 8 µg/mL (≈ 16.9 µM)
[2]; [7]
  IC50: 25.4 µM
[3]
  MIC: 0.5 µg/mL (≈ 1.06 µM)
[4]
  IC50: 19 µM

## COc1cc(/C=C2\OC(=O)C(c3cc(Cl)cc(Cl)c3)=C2O)ccc1-c1ccccc1C(F)(F)F [Example 33]
[1]; [5]
  MIC: 1 µg/mL (≈ 1.97 µM)
[1]; [6]
  MIC: 2 µg/mL (≈ 3.94 µM)
[2]; [7]
  IC50: > 49.3 µM
[3]
  MIC: 0.5 µg/mL (≈ 0.986 µM)
[4]
  IC50: > 49.3 µM

## O=C1O/C(=C\c2ccc(N3CCOCC3)c(F)c2)C(O)=C1c1cc(Cl)cc(Cl)c1 [Example 34]
[1]; E. faecalis GC 2242
  MIC E. faecalis GC 2242: 64 µg/mL (≈ 147 µM)
[1]; E. faecalis GC 4555
  MIC E. faecalis GC 4555: 64 µg/mL (≈ 147 µM)
[2]; (S) S. aureus enzyme
  MurC IC50: 21 (S) μg/mL
[3]
  MIC S. pneumo GC 1894: 4 µg/mL (≈ 9.17 µM)
[4]
  MurD IC50: >25 (S) μg/mL

## COc1ccc(C=C2OC(=O)C(c3cccc(Cl)c3)=C2O)c2ccccc12 [Example 35]
[1]; E. faecalis GC 2242
  MIC E. faecalis GC 2242: 8 µg/mL (≈ 21.1 µM)
[1]; E. faecalis GC 4555
  MIC E. faecalis GC 4555: 16 µg/mL (≈ 42.2 µM)
[2]; (S) S. aureus enzyme
  MurC IC50: 8 (S) μg/mL
[3]
  MIC S. pneumo GC 1894: 2 µg/mL (≈ 5.28 µM)
[4]
  MurD IC50: 17 (S) μg/mL

## COc1ccc(/C=C2\OC(=O)C(c3cc(Cl)cc(Cl)c3)=C2O)c2ccccc12 [Example 36]
[1]; [5]
  MIC: 4 µg/mL (≈ 9.68 µM)
[1]; [6]
  MIC: 8 µg/mL (≈ 19.4 µM)
[2]; [7]
  IC50: 12.1 µM
[3]
  MIC: 1 µg/mL (≈ 2.42 µM)
[4]
  IC50: 21.8 µM

## O=C1O/C(=C\c2ccc(N3CCOCC3)c3ccccc23)C(O)=C1c1cccc(Cl)c1 [Example 37]
[1]; [5]
  MIC: 16 µg/mL (≈ 36.9 µM)
[1]; [6]
  MIC: 32 µg/mL (≈ 73.8 µM)
[2]; [7]
  IC50: 23 µM
[3]
  MIC: 8 µg/mL (≈ 18.4 µM)
[4]
  IC50: 43.8 µM

## O=C1O/C(=C\c2ccc(N3CCOCC3)c3ccccc23)C(O)=C1c1cc(Cl)cc(Cl)c1 [Example 38]
[1]; [5]
  MIC: 16 µg/mL (≈ 34.2 µM)
[1]; [6]
  MIC: 32 µg/mL (≈ 68.3 µM)
[2]; [7]
  IC50: 14.9 µM
[3]
  MIC: 1 µg/mL (≈ 2.14 µM)
[4]
  IC50: 12.8 µM

## Cc1cc(/C=C2\OC(=O)C(c3cc(Cl)cc(Cl)c3)=C2O)ccc1-c1ccccc1OS(C)(=O)=O [Example 39]
[1]; E. faecalis GC 2242
  MIC E. faecalis GC 2242: 4 µg/mL (≈ 7.73 µM)
[1]; E. faecalis GC 4555
  MIC E. faecalis GC 4555: 8 µg/mL (≈ 15.5 µM)
[2]; (S) S. aureus enzyme
  MurC IC50: 8 (S) μg/mL
[3]
  MIC S. pneumo GC 1894: 1 µg/mL (≈ 1.93 µM)
[4]
  MurD IC50: 15 (S) μg/mL

## O=C1O/C(=C\c2cccc(C(F)(F)F)c2)C(O)=C1c1ccc2ccccc2c1 [Example 42]
[1]; [5]
  MIC: 8 µg/mL (≈ 20.9 µM)
[1]; [6]
  MIC: 32 µg/mL (≈ 83.7 µM)
[2]; [7]
  IC50: 47.1 µM
[3]
  MIC: 8 µg/mL (≈ 20.9 µM)
[4]
  IC50: > 65.4 µM

## O=C1O/C(=C\c2ccc(Cl)cc2)C(O)=C1c1ccc2ccccc2c1 [Example 43]
[1]; [5]
  MIC: 4 µg/mL (≈ 11.5 µM)
[1]; [6]
  MIC: 16 µg/mL (≈ 45.9 µM)
[2]; [7]
  IC50: 60.2 µM
[3]
  MIC: 1 µg/mL (≈ 2.87 µM)
[4]
  IC50: > 71.7 µM

## O=C1O/C(=C\C2CCCCC2)C(O)=C1c1ccc2ccccc2c1 [Example 51]
[1]; [5]
  MIC: 8 µg/mL (≈ 25 µM)
[1]; [6]
  MIC: 32 µg/mL (≈ 99.9 µM)
[2]; [7]
  IC50: 62.4 µM
[3]
  MIC: < 0.125 µg/mL
[4]
  IC50: > 78 µM

## O=C1O/C(=C\c2ccc3ccccc3c2)C(O)=C1c1ccc2ccccc2c1 [Example 52]
[1]; [5]
  MIC: 4 µg/mL (≈ 11 µM)
[1]; [6]
  MIC: 8 µg/mL (≈ 22 µM)
[2]; [7]
  IC50: > 68.6 µM
[3]
  MIC: 0.5 µg/mL (≈ 1.37 µM)
[4]
  IC50: 54.9 µM

## O=C1O/C(=C\c2ccc(-c3ccccc3)cc2)C(O)=C1c1ccc(Cl)cc1 [Example 53]
[1]; [5]
  MIC: 4 µg/mL (≈ 10.7 µM)
[1]; [6]
  MIC: 8 µg/mL (≈ 21.3 µM)
[2]; [7]
  IC50: 18.7 µM
[3]
  MIC: 0.5 µg/mL (≈ 1.33 µM)
[4]
  IC50: 42.7 µM

## O=C1O/C(=C\c2ccc3ccccc3c2)C(O)=C1c1ccc(Cl)cc1 [Example 54]
[1]; [5]
  MIC: 4 µg/mL (≈ 11.5 µM)
[1]; [6]
  MIC: 32 µg/mL (≈ 91.7 µM)
[2]; [7]
  IC50: 31.5 µM
[3]
  MIC: < 0.125 µg/mL
[4]
  IC50: > 71.7 µM

## O=C1O/C(=C\c2ccc3ccccc3c2)C(O)=C1c1cccc2ccccc12 [Example 56]
[1]; [5]
  MIC: 8 µg/mL (≈ 22 µM)
[1]; [6]
  MIC: 32 µg/mL (≈ 87.8 µM)
[2]; [7]
  IC50: 30.2 µM
[3]
  MIC: 4 µg/mL (≈ 11 µM)
[4]
  IC50: 52.1 µM

## O=C1O/C(=C\c2ccc(-c3ccccc3)cc2)C(O)=C1c1cc(Cl)cc(Cl)c1 [Example 67]
[1]; [5]
  MIC: 0.5 µg/mL (≈ 1.22 µM)
[1]; [6]
  MIC: 2 µg/mL (≈ 4.89 µM)
[2]; [7]
  IC50: 44 µM
[3]
  MIC: < 0.125 µg/mL
[4]
  IC50: 19.5 µM

## O=C1O/C(=C\c2ccc(-c3ccccc3)cc2)C(O)=C1c1cccc(Cl)c1 [Example 69]
[1]; [5]
  MIC: 0.5 µg/mL (≈ 1.33 µM)
[1]; [6]
  MIC: 0.5 µg/mL (≈ 1.33 µM)
[2]; [7]
  IC50: 13.3 µM
[3]
  MIC: 0.25 µg/mL (≈ 0.667 µM)
[4]
  IC50: 18.7 µM

## O=C1O/C(=C\c2cccc3ccccc23)C(O)=C1c1cc(Cl)cc(Cl)c1 [Example 70]
[1]; [5]
  MIC: 2 µg/mL (≈ 5.22 µM)
[1]; [6]
  MIC: 2 µg/mL (≈ 5.22 µM)
[2]; [7]
  IC50: 20.9 µM
[3]
  MIC: 0.5 µg/mL (≈ 1.3 µM)
[4]
  IC50: 23.5 µM

## O=C1O/C(=C\c2cccc3ccccc23)C(O)=C1c1ccc(C(F)(F)F)cc1 [Example 71]
[1]; [5]
  MIC: 4 µg/mL (≈ 10.5 µM)
[1]; [6]
  MIC: 8 µg/mL (≈ 20.9 µM)
[2]
  IC50: 52.3 µM
[3]
  MIC: 0.5 µg/mL (≈ 1.31 µM)
[4]
  IC50: 62.8 µM

## COc1cccc(C2=C(O)/C(=C/c3cccc4ccccc34)OC2=O)c1 [Example 72]
[1]; [5]
  MIC: > 128 µg/mL
[1]; [6]
  MIC: > 128 µg/mL
[2]; [7]
  IC50: > 72.6 µM
[3]
  MIC: 32 µg/mL (≈ 92.9 µM)
[4]
  IC50: > 72.6 µM
